# From patent publication US20050244983A1, “Method for measuring antioxidant status” (The Western Australian Centre for Pathology and Medical …, priority 2002, published 2005)
# “And” between values parts separate entries of the source, which are not always exact repeats. Identical values can stand only once.
# Legend:
# [1] = AIOR assay (antioxidant inhibition of radical assay): uroporphyrin I fluorescence decay with AAPH, area under curve against Trolox standard curve; format: biochemical; conditions: for Antioxidant Status (mM) Trolox Equivalent Calculated 1/16 Dilution: calculated from the observed ¼ dilution value; for Antioxidant Status Trolox Equivalent (mM) of the observed individual ¼ Dilution: individual polyphenol; for Antioxidant Status Trolox Equivalent (mM) of the observed individual ¼ Dilution / Antioxidant status in mM Trolox equivalent, High value / Antioxidant status in mM Trolox equivalent, Low value / Antioxidant status in mM Trolox equivalent, Mean value: n=9; for Area Under Curve (mean ± SD): uroporphyrin 1/1000, ratio 1:45:280, n=6; for antioxidant activity of solvent (in words) / Antioxidant status in mM Trolox equivalent, High value / Antioxidant status in mM Trolox equivalent, Low value / Antioxidant status in mM Trolox equivalent, Mean value: solvent compared against blank
# Protocol: The stock phosphate buffer (0.75 M, pH 7.0) was prepared by mixing 61.1:38.9 (v/v) of a 0.75 M K2HPO4 and a 0.75 M NaH2PO4 solution. The working phosphate buffer 75 mM, pH 7.0 was prepared by a 1:9 (v/v) dilution of the 0.75 M stock phosphate buffer.
# AAPH (583 mM) was prepared by dissolving completely 0.474 g of AAPH in 3 mL of 75 mM, pH 7.0 phosphate buffer. This solution was prepared freshly before each run.
# Uroporphyrin stock solution (225 μM) was prepared by dissolving 1.2 mg of uroporphyrin I dihydrochloride in 5.9 mL of phosphate buffer (75 mM, pH 7.0). This solution was very stable for many months by storing in the dark at 4° C. A secondary uroporphyrin stock solution for routine use was prepared by a 1:50 (v/v) dilution of the stock uroporphyrin solution with phosphate buffer (75 mM, pH 7.0). This secondary stock solution was stable for several months in the dark at 4° C. A working uroporphyrin solution for daily use was prepared by a 1:750 (v/v) dilution of the secondary uroporphyrin solution with phosphate buffer (75 mM, pH 7.0).
# To enable complete solubility of both hydrophobic and hydrophilic compounds in the sample, a surfactant Brij 35™ was added to the working uroporphyrin solution in the quantity of 0.1% of the reagent.
# Trolox was used as an antioxidant standard to compare the antioxidant status of various inorganic and organic matter. A stock Trolox standard solution (5.0 mM) was prepared by dissolving Trolox 35 (250 mg) in 200 mL of phosphate buffer (75 mM, pH 7.0). Working standards of Trolox were prepared by diluting the stock Trolox standard to 0.5, 1.0 and 2.0 mM with the same buffer.
# Sample/blank/standard (1 μL), and working uroporphyrin solution (0.300 uM) with Brij™ (136 μL) were added to the wells of a 96-well microplate. Blank, standards or diluted samples were added first into the well, followed by working uroporphyrin solution with Brij™. The contents of each well was mixed using a plateshaker for 1-2 minutes. Freshly prepared AAPH solution […] (22 μL) was then added. This procedure provided a sample to AAPH to uroporphyrin ratio of (1:22:136). The contents of the wells were then mixed again for exactly 2 minutes before acquisition of data with the Varian Cary Eclipse fluorescence spectrophotometer. A sample to reagent ratio of (2:30:186) was also used to further improve the precision of the assay.
# The Varian Cary Eclipse fluorescence spectrophotometer settings were as follows. • Excitation λ=397 nm; Emission λ=615 nm. • Excitation Slit=20 nm; Emission Slit=10 nm. • Ave Time=0.2 sec. • Run Time=180 minutes. • Y (min-max)=0-1000. • Excitation Filter: Auto. • Emission Filter: Open. • PMT: Variable (Choice of low, medium or high).
# The method takes the free radical action to completion in 180 minutes. The Varian Cary Eclipse fluorescence spectrophotometer has the ability to achieve high throughput of 96 samples in 180 minutes with the 96-wellplate format. […] This invention provides both a method and reagent, which can accurately, easily, economically, and quickly analyze antioxidant status.
# The results of the analysis were normalized by Varian Cary Eclipse software and calculated by GraphPad Prism 4.0 software (GraphPad Software, Inc., San Diego Calif., 2003).
# [2] = as above; format: biochemical; conditions: for Area Under Curve (mean ± SD): uroporphyrin 1/1000, ratio 1:45:280, n=6
compound,measurement,setting,value
O=C(O)c1cc(O)c(O)c(O)c1 [Gallic acid],Antioxidant Status (mM) Trolox Equivalent Calculated 1/16 Dilution,[1],0.45 mM
same,Antioxidant Status Trolox Equivalent (mM) of the observed individual ¼ Dilution,[1],1.75 ± 0.11 mM
same,Antioxidant Status Trolox Equivalent (mM ± SD),[1]; polyphenol 0.25 mM in ethanol,0.46 ± 0.07 mM
same,Antioxidant Status Trolox Equivalent (mM ± SD),[1]; polyphenol 0.5 mM in ethanol,1.22 ± 0.17 mM
"Cc1c(C)c2c(c(C)c1O)CCC(C)(C(=O)O)O2 (racemic) [Trolox, (±)6-hydroxy-2,5,7,8-tetramethylchromane-2-carboxylic acid]",Area Under Curve (mean ± SD),"[1]; STD 1.0 mM, AAPH 640 mM",35554 ± 2267
same,Area Under Curve (mean ± SD),"[1]; STD 4.0 mM, AAPH 583 mM",77238 ± 3701
same,Mean Area Under Curve,"[1]; Trolox 0.5 mM, 20 μL Brij 35 per 15 mL working uroporphyrin solution, n=24",45482
same,Mean Area Under Curve,"[1]; Trolox 0.5 mM, 100 μL Brij 35 per 15 mL working uroporphyrin solution, n=24",52714
same,Mean Area Under Curve,"[1]; Trolox 0.5 mM, intra-assay precision, n=16",47456
same,Mean Area Under Curve,"[1]; Trolox 1.0 mM, 20 μL Brij 35 per 15 mL working uroporphyrin solution, n=24",57154
same,Mean Area Under Curve,"[1]; Trolox 1.0 mM, 100 μL Brij 35 per 15 mL working uroporphyrin solution, n=24",61482
same,Mean Area Under Curve,"[1]; Trolox 1.0 mM, intra-assay precision, n=16",57535
same,Mean Area Under Curve,"[1]; Trolox 2.0 mM, 20 μL Brij 35 per 15 mL working uroporphyrin solution, n=24",72596
same,Mean Area Under Curve,"[1]; Trolox 2.0 mM, intra-assay precision, n=16",76499
same,Area Under Curve (mean ± SD),"[2]; STD 1.0 mM, AAPH 583 mM",40829 ± 4000
same,Area Under Curve (mean ± SD),"[2]; STD 2.0 mM, AAPH 583 mM",55416 ± 3207
same,Area Under Curve (mean ± SD),"[2]; STD 2.0 mM, AAPH 640 mM",44522 ± 2348
same,Area Under Curve (mean ± SD),"[2]; STD 4.0 mM, AAPH 640 mM",69220 ± 6603
same,Mean Area Under Curve,"[2]; Trolox 2.0 mM, 100 μL Brij 35 per 15 mL working uroporphyrin solution, n=24",71394
Vitamin A,Antioxidant Status in Trolox Equivalent (mM ± SD),"[1]; vitamin A 1940 μM in isopropanol, n=10",0.6 ± 0.1 mM
same,Antioxidant Status in Trolox Equivalent (mM ± SD),"[1]; vitamin A 1940 μM in isopropanol, n=10, listed as vitamin A",0.56 mM
same,Antioxidant Status in Trolox Equivalent (mM ± SD),"[1]; vitamin A 3880 μM in isopropanol, n=10",1.1 ± 0.1 mM
same,Antioxidant Status in Trolox Equivalent (mM ± SD),"[1]; vitamin A 3880 μM in isopropanol, n=10, listed as vitamin A",1.11 mM
same,Antioxidant Status in Trolox Equivalent (mM ± SD),"[1]; vitamin A 5820 μM in isopropanol, n=10",1.4 ± 0.1 mM
same,Antioxidant Status in Trolox Equivalent (mM ± SD),"[1]; vitamin A 5820 μM in isopropanol, n=10, listed as vitamin A",1.41 mM
Cn1c(=O)c2c(ncn2C)n(C)c1=O [caffeine],mean antioxidant status in Trolox equivalent,[1]; caffeine 9.6 mmol/L in phosphate buffer,0.2 mM
"O=c1[nH]c(=O)c2[nH]c(=O)[nH]c2[nH]1 [Uric Acid, Uric acid]",Antioxidant Status in Trolox Equivalent (mM ± SD),"[1]; uric acid 424 μM in phosphate buffer, n=12",0.6 ± 0.1 mM
same,Antioxidant Status in Trolox Equivalent (mM ± SD),"[1]; uric acid 424 μM in phosphate buffer, n=12, listed as uric acid",0.6 mM
same,Antioxidant Status in Trolox Equivalent (mM ± SD),"[1]; uric acid 848 μM in phosphate buffer, n=12",1.2 ± 0.1 mM
same,Antioxidant Status in Trolox Equivalent (mM ± SD),"[1]; uric acid 848 μM in phosphate buffer, n=12, listed as uric acid",1.2 mM
same,Antioxidant Status in Trolox Equivalent (mM ± SD),"[1]; uric acid 1696 μM in phosphate buffer, n=12",2.4 ± 0.1 mM
same,Antioxidant Status in Trolox Equivalent (mM ± SD),"[1]; uric acid 1696 μM in phosphate buffer, n=12, listed as uric acid",2.4 mM
same,"estimation of mean antioxidant status, Trolox equivalent","[1]; uric acid at physiological upper range for female, 340 μmol/L",0.48 mM
same,"estimation of mean antioxidant status, Trolox equivalent","[1]; uric acid at physiological upper range for male, 420 μmol/L",0.59 mM
CC(C)O [Isopropanol],antioxidant activity of solvent (in words),[1],no antioxidant activity
same,"Antioxidant status in mM Trolox equivalent, High value",[1],0.1 mM
same,"Antioxidant status in mM Trolox equivalent, Low value",[1],0.0 mM
same,"Antioxidant status in mM Trolox equivalent, Mean value",[1],0.04 mM
O=c1c(O)c(-c2ccc(O)c(O)c2)oc2cc(O)cc(O)c12 [Quercetin],Antioxidant Status (mM) Trolox Equivalent Calculated 1/16 Dilution,[1],1.10 mM
same,Antioxidant Status Trolox Equivalent (mM) of the observed individual ¼ Dilution,[1],4.41 ± 0.44 mM
same,Antioxidant Status Trolox Equivalent (mM ± SD),[1]; polyphenol 0.25 mM in ethanol,1.82 ± 0.13 mM
same,Antioxidant Status Trolox Equivalent (mM ± SD),[1]; polyphenol 0.5 mM in ethanol,4.58 ± 0.24 mM
CCO [Ethanol],antioxidant activity of solvent (in words),[1],no antioxidant activity
same,"Antioxidant status in mM Trolox equivalent, High value",[1],0.1 mM
same,"Antioxidant status in mM Trolox equivalent, Low value",[1],0.0 mM
same,"Antioxidant status in mM Trolox equivalent, Mean value",[1],0.08 mM
"Oc1cc(O)c2c(c1)O[C@H](c1ccc(O)c(O)c1)[C@H](O)C2 [(−) Epicatechin, (−) epicatechin]",Antioxidant Status (mM) Trolox Equivalent Calculated 1/16 Dilution,[1],1.00 mM
same,Antioxidant Status Trolox Equivalent (mM) of the observed individual ¼ Dilution,[1],4.03 ± 0.28 mM
same,Antioxidant Status Trolox Equivalent (mM ± SD),[1]; polyphenol 0.25 mM in ethanol,1.62 ± 0.13 mM
same,Antioxidant Status Trolox Equivalent (mM ± SD),[1]; polyphenol 0.5 mM in ethanol,3.69 ± 0.23 mM
Albumin,Antioxidant Capacity in Trolox Equivalent (mM ± SD),"[1]; albumin 20 g/L in phosphate buffer, n=12",1.2 mM and 1.2 ± 0.1 mM
same,Antioxidant Capacity in Trolox Equivalent (mM ± SD),"[1]; albumin 40 g/L in phosphate buffer, n=12",2.4 mM and 2.4 ± 0.1 mM
(±) catechin,Antioxidant Status Trolox Equivalent (mM ± SD),[1]; polyphenol 0.25 mM in ethanol,1.60 ± 0.07 mM
same,Antioxidant Status Trolox Equivalent (mM ± SD),[1]; polyphenol 0.5 mM in ethanol,3.47 ± 0.19 mM
Vitamin E,Antioxidant Status in Trolox Equivalent (mM ± SD),"[1]; vitamin E 952 μM in isopropanol, n=10",0.4 ± 0.1 mM
same,Antioxidant Status in Trolox Equivalent (mM ± SD),"[1]; vitamin E 952 μM in isopropanol, n=10, listed as vitamin E",0.4 mM
same,Antioxidant Status in Trolox Equivalent (mM ± SD),"[1]; vitamin E 1905 μM in isopropanol, n=10",1.1 ± 0.1 mM
same,Antioxidant Status in Trolox Equivalent (mM ± SD),"[1]; vitamin E 1905 μM in isopropanol, n=10, listed as vitamin E",1.1 mM
same,Antioxidant Status in Trolox Equivalent (mM ± SD),"[1]; vitamin E 3810 μM in isopropanol, n=10",2.7 ± 0.1 mM
same,Antioxidant Status in Trolox Equivalent (mM ± SD),"[1]; vitamin E 3810 μM in isopropanol, n=10, listed as vitamin E",2.7 mM
"C[S+](C)[O-] [DMSO, Dimethyl sulphoxide]","Antioxidant status in mM Trolox equivalent, High value",[1],1.2 mM
same,"Antioxidant status in mM Trolox equivalent, Low value",[1],0.6 mM
same,"Antioxidant status in mM Trolox equivalent, Mean value",[1],0.86 mM
CC(C)=O [Acetone],antioxidant activity of solvent (in words),[1],no antioxidant activity
same,"Antioxidant status in mM Trolox equivalent, High value",[1],0.2 mM
same,"Antioxidant status in mM Trolox equivalent, Low value",[1],0.0 mM
same,"Antioxidant status in mM Trolox equivalent, Mean value",[1],0.08 mM
O=C1O[C@H]([C@@H](O)CO)C(O)=C1O [Vitamin C],Antioxidant Status in Trolox Equivalent (mM ± SD),"[1]; vitamin C 2.65 mM in deionized water, n=12",0.9 ± 0.1 mM
same,Antioxidant Status in Trolox Equivalent (mM ± SD),"[1]; vitamin C 2.65 mM in deionized water, n=12, listed as vitamin C",0.9 mM
same,Antioxidant Status in Trolox Equivalent (mM ± SD),"[1]; vitamin C 5.30 mM in deionized water, n=12",1.8 ± 0.1 mM
same,Antioxidant Status in Trolox Equivalent (mM ± SD),"[1]; vitamin C 5.30 mM in deionized water, n=12, listed as vitamin C",1.8 mM
same,Antioxidant Status in Trolox Equivalent (mM ± SD),"[1]; vitamin C 10.6 mM in deionized water, outside standard curve range, n=12",4.0 ± 0.2 mM
same,Antioxidant Status in Trolox Equivalent (mM ± SD),"[1]; vitamin C 10.6 mM in deionized water, outside standard curve range, n=12, listed as vitamin C",4.0 mM
